In patent US9199988B2, “Dihydroquinazolinone analogues” (Boehringer Ingelheim International GmbH, priority 2013, dated 2015):
pIC50: −log10 of the molar value.

biological target: T1, first (BRD4-BD1) or the second (BRD4-BD2) bromodomain of BRD4 (Homo sapiens, UniProt O60885); experiment: BRD4-H4 tetraacetylated peptide inhibition AlphaScreen; format: binding; details: inhibition of interaction of GST-BRD4 bromodomain with biotinylated tetraacetylated histone H4 peptide; table does not say whether BD1 or BD2
T1 construct: fused on or other part: GST tag (N-terminal fusion, used for capture on the glutathione acceptor beads)
Procedure: BRD4-H4 tetraacetylated peptide inhibition AlphaScreen
Compounds are diluted in serial dilution 1:5 in assay buffer from 10 mM stock in DMSO (100 μM start concentration) in white OptiPlate-384 (PerkinElmer). A mix consisting of 15 nM GST-BRD4-BD1 protein (aa 44-168) or 150 nM GST-BRD4-BD2 (aa 333-460) and 15 nM biotinylated Acetyl-Histone H4 (LysS, 8, 12, 16) peptide is prepared in assay buffer (50 mM HEPES pH=7.4; 25 mM NaCl; 0.05% Tween 20; 0.1% bovine serum albumin (BSA); 10 mM dithiothreitol (DTT)). 6 μl of the mix is added to the compound dilutions. Subsequently, 6 μl of premixed AlphaLISA Glutathione Acceptor Beads and AlphaScreen Streptavidin Donor Beads from PerkinElmer (in assay buffer at a concentration of 10 μg/ml each) are added and the samples are incubated for 30 min at RT in the dark (shaking 300 rpm). Afterwards, the signal is measured in a PerkinElmer Envision HTS Multilabel Reader using the AlphaScreen protocol from PerkinElmer. Each plate contains negative controls where biotinylated Acetyl-Histone H4 peptide and GST-BRD4-BD1 or GST-BRD4-BD2 are left out and replaced by assay buffer. Negative control values are entered as low basis value when using the software GraphPad Prism for calculations. Furthermore, a positive control (probe molecule JQ1+ with protein/peptide mix) is pipetted. Determination of IC50 values are carried out using GraphPad Prism 3.03 software (or updates thereof).

Row | pIC50 | SMILES
1 | 6.62 | COc1ccc(CN2C(=O)Oc3ccc(-c4c(C)noc4C)cc3C2c2ccccc2)cc1 (stereo not shown) [Example 12, 6-(3,5-Dimethyl-isoxazol-4-yl)-3-(4-methoxy-benzyl)-4-phenyl-3,4-dihydro-benzo[e][1,3]oxazin-2-one]
2 | 7.12 | Cc1noc(C)c1-c1cnc2c(c1)C(c1ccccc1)N(C)C(=O)N2 (stereo not shown) [Example 18, 6-(3,5-Dimethyl-isoxazol-4-yl)-3-methyl-4-phenyl-3,4-dihydro-1H-pyrido[2,3-]pyrimidin-2-one]
3 | 6.67 | COc1noc(C)c1-c1ccc2c(c1)C(c1ccccc1)N(C)C(=O)N2 (stereo not shown) [Example 20, 6-(3-Methoxy-5-methyl-isoxazol-4-yl)-3-methyl-4-phenyl-3,4-dihydro-1H-quinazolin-2-one]
4 | 7.17 | Cc1noc(C)c1-c1ccc2c(c1)[C@H](c1ccccc1)N(C)C(=O)O2 [Example 9, (S) 6-(3,5-Dimethyl-isoxazol-4-yl)-3-methyl-4-phenyl-3,4-dihydro-benzo[e][1,3]oxazin-2-one]
5 | 7.51 | Cc1noc(C)c1-c1ccc2c(c1)C(C)(c1ccccc1)N(C)C(=O)N2 (stereo not shown) [Example 19, 6-(3,5-Dimethyl-isoxazol-4-yl)-3,4-dimethyl-4-phenyl-3,4-dihydro-1H-quinazolin-2-one]
6 | 6.78 | Cc1noc(C)c1-c1cc2c(cn1)NC(=O)N(C)[C@H]2c1ccccc1 [Example 16, (S) 6-(3,5-Dimethyl-isoxazol-4-yl)-3-methyl-4-phenyl-3,4-dihydro-1H-pyrido[3,4-d]pyrimidin-2-one]
7 | 6.65 | Cc1noc(C)c1-c1ccc2c(c1)C(c1ccccc1)N(Cc1ccccc1)C(=O)N2 (stereo not shown) [Example 6, 3-Benzyl-6-(3,5-dimethylisoxazol-4-yl)-4-phenyl-1,4-dihydroquinazolin-2-one]
8 | 6.60 | Cc1noc(C)c1-c1ccc2c(n1)C(c1ccccc1)N(C)C(=O)N2 (stereo not shown) [Example 17, 6-(3,5-Dimethyl-isoxazol-4-yl)-3-methyl-4-phenyl-3,4-dihydro-1H-pyrido[3,2-d]pyrimidin-2-one]
9 | 7.57 | Cc1noc(C)c1-c1ccc2c(c1)[C@H](c1ccccc1)N(C)C(=O)N2 [Example 2, (S) 6-(3,5-Dimethyl-isoxazol-4-yl)-3-methyl-4-phenyl-3,4-dihydro-1H-quinazolin-2-one]
10 | 7.36 | Cc1noc(C)c1-c1ccc2c(c1)C(c1ccccc1)N(C)C(=O)N2 (stereo not shown) [Example 1, 6-(3,5-Dimethyl-isoxazol-4-yl)-3-methyl-4-phenyl-3,4-dihydro-1H-quinazolin-2-one]
11 | 7.18 | Cc1noc(C)c1-c1ccc2c(c1)C(c1ccccc1)N(C)C(=O)N2C (stereo not shown) [Example 3, 6-(3,5-Dimethyl-isoxazol-4-yl)-1,3-dimethyl-4-phenyl-3,4-dihydro-1H-quinazolin-2-one]
12 | 6.37 | Cc1noc(C)c1-c1ccc2c(c1)C(c1ccccc1)OC(=O)N2 (stereo not shown) [Example 10, 6-(3,5-Dimethyl-isoxazol-4-yl)-4-phenyl-1,4-dihydro-benzo[d][1,3]oxazin-2-one]
13 | 7.12 | Cc1noc(C)c1-c1ccc2c(c1)C(c1ccccc1)N(C)C(=O)O2 (stereo not shown) [Example 8, 6-(3,5-Dimethyl-isoxazol-4-yl)-3-methyl-4-phenyl-3,4-dihydro-benzo[e][1,3]oxazin-2-one]
14 | 6.92 | Cc1noc(C)c1-c1ccc2c(c1)C(c1ccccn1)N(C)C(=O)N2 (stereo not shown) [Example 13, 6-(3,5-Dimethyl-isoxazol-4-yl)-3-methyl-4-pyridin-2-yl-3,4-dihydro-1H-quinazolin-2-one]
15 | 6.08 | COc1c(-c2c(C)noc2C)ccc2c1C(c1ccccc1)N(C)C(=O)N2 (stereo not shown) [Example 21, 6-(3,5-Dimethyl-isoxazol-4-yl)-5-methoxy-3-methyl-4-phenyl-3,4-dihydro-1H-quinazolin-2-one]
16 | 6.08 | Cc1noc(C)c1-c1cc2c(cn1)NC(=O)N(C)C2c1ccccc1 (stereo not shown) [Example 15, 6-(3,5-Dimethyl-isoxazol-4-yl)-3-methyl-4-phenyl-3,4-dihydro-1H-pyrido[3,4-d]pyrimidin-2-one]
17 | 7.51 | Cc1noc(C)c1-c1ccc2c(c1)C(c1ccccc1)N(CC1CCN(C)CC1)C(=O)N2 (stereo not shown) [Example 4, 6-(3,5-Dimethyl-isoxazol-4-yl)-3-(1-methyl-piperidin-4-ylmethyl)-4-phenyl-3,4-dihydro-1H-quinazolin-2-one]
18 | 6.98 | Cc1noc(C)c1-c1ccc2c(c1)C(c1ccc(Cl)cc1)N(C)C(=O)N2 (stereo not shown) [Example 7, 4-(4-Chloro-phenyl)-6-(3,5-dimethyl-isoxazol-4-yl)-3-methyl-3,4-dihydro-1H-quinazolin-2-one]
19 | 7.42 | Cc1noc(C)c1-c1ccc2c(c1)C(c1ccccc1)N(CC1CCOCC1)C(=O)N2 (stereo not shown) [Example 5, 6-(3,5-Dimethylisoxazol-4-yl)-4-phenyl-3-(tetrahydropyran-4-ylmethyl)-1,4-dihydroquinazolin-2-one]
